Measured values: patent publication EP0472573B1, “HERBICIDE RESISTANT MAIZE” (ZENECA LIMITED, priority 1989, dated 1990)
pIC50: −log10 of the molar value. Read-outs that look alike come from different tables or passages of the source.

Columns and labels:
[1] = biological target: ALS (acetolactate synthase), Wild type; experiment: ALS enzyme assay, wild-type control; format: biochemical, Zea mays; conditions: read-out: ID50% (the source's name)
Method: (§1) Seeds of generation M₁BC₁ M₁BC₂ of the nine mutants were sprayed pre-emergence with the herbicide imazethapyr (PURSUIT) (Trade Mark) at a rate of 250 g/ha and grown in a growth chamber (16 hour day, 27°C; 8 hour night, 17°C). Plants were harvested after 11 days.
(§2) Four grams of leaf material were harvested from just above the first leaf axis and ground in a mortar and pestle in 20ml of a solution containing 40mM Tricine (Trade Mark), 10mM EDTA, 5mM pyruvate, 80 »M flavin adenine dinucleotide (FAD), 1mM dithiothreitol (DTT), pH 8, plus 0.8g Polyclar AT. The homogenate was pressed through four layers of muslin and centrifuged at 30,000g for 20 minutes.
(§3) The supernatant was brought to 65% saturation with ammonium sulphate, left to precipitate for 30 minutes and then centrifuged at 30.000g for 20 minutes. The pellet was resuspended in 2.5ml of 40mM Tricine, 10mM EDTA, 5mM pyruvate, 80»M FAD, 25% (v/v) glycerol, 1mM DTT, pH 8, and desalted into 3.5ml of 40mM Tricine, 10mM EDTA, 25% (v/v) glycerol, 1mM DTT, pH 8.
(§4) One hundred microlitres of the enzyme extract was used for each assay. Final reagent concentrations were: 120mM Tricine, 50mM pyruvate, 10mM MgCl₂, […], 93»M thiamine pyrophosphate (TPP), pH 8, in the presence or absence of a herbicide of interest, in a volume of 750 »l. Incubations were carried out at 37°C for 30 minutes. Reactions were stopped with 250»l of 1.84M sulphuric acid, and decarboxylation of the acetolactate carried out at 37°C for 75 minutes, or at 60°C for 30 minutes. Assay blanks had sulphuric acid added prior to the enzyme extract. To the samples and blanks 650»l of α-naphthol in 2.73M NaOH/0.16%(w/v) creatine were added followed by incubation at 37°C for 30 minutes. After centrifugation at 30,000g the optical density of the supernatant was read at 540nm.
(§5) The assay procedure described was carried out on ALS enzyme extracted from each of the nine mutants for the following herbicides: imazethapyr (PURSUIT) imazapyr (ARSENAL) imazaquin (SCEPTER) chlorsulfuron (GLEAN) chlorimuron (CLASSIC) […] (HARMONY) The enzyme activity graphs are given as Figures 3 to 8. In addition, homozygous lines of mutants 1 and 2 which were selected from generation M₁BC₁S₂, were also tested against the same group of herbicides and against representatives of the triazolopyrimidines and phenoxypyrimidines. The chemical structures of these herbicides are shown in Figure 2 of the accompanying drawings.
(§6) From the enzyme assay data it is possible to derive, as a measure of the degree of inhibition the factor ID50% for each mutant and for each herbicide. This factor is indicative of the herbicide concentration which gives 50% inhibition of the ALS activity in comparison with the wild-type control. It is also possible to derive the fold increase in resistance.

[2] = biological target: ALS enzyme extracted from Mutant 1 (heterozygous); experiment: ALS enzyme assay, heterozygous Mutant 1; format: biochemical, Zea mays; conditions: for pIC50: ALS of heterozygous Mutant 1, read-out: ID50% (the source's name); for resistance group, Enzyme Assay: Mutant 1, groups Strong, Intermediate, Weak, Zero; for Fold Increase: fold increase in resistance vs wild type, heterozygous Mutant 1, 30 min
Method: as §1, §2, §3, §4, §5, §6

Mutant 2 plants = experiment: Cross-resistance testing (glasshouse dose response), Mutant 2; format: in vivo, Zea mays; conditions: pre-emergence spray, assessed after four weeks growth
Source text: (§7) The seeds used in this screen were populations of mixed tolerant and sensitive seed, segregating 1:1, derived from each of the heterogygous, tolerant mutants crossed with homozygous, sensitive UE95. All of the tolerant progeny are heterozygous for tolerance. Each of the mutants identified above were used except mutant 4. The controls were seed of self-pollinated UE95 which was pollinated in the same year as the tolerant lines.
(§8) One litre of compost was placed in each seed tray of dimensions 19cm x 11cm x 5cm deep and firmed down flat. Two furrows 1 cm deep were drawn in the surface of the compost in each tray and six seeds were sown in each furrow (total twelve seeds per tray). Some trays were sown with 24 seeds, in which case three furrows were made and 8 seeds sown per furrow.
(§9) In each test each tray contained either the seed of one mutant or of the UE95 control for each herbicide application rate and for the untreated control.
(§10) Five different types of ALS-inhibitor herbicides were tested on the mutants plus imazethapyr (PURSUIT) as a comparison. Four rates of each were applied; approximately 0.1x, 0.5x, 1x and 4x the estimated field rates for each herbicide. The rates are the same for mutant 3 to 10 but higher rates for chlorimuron (CLASSIC) and lower rates for chlorsulfuron (GLEAN) were applied to mutants 1 and 2.
(§11) The rates of application used in the screening tests were as follows: chlorimuron (CLASSIC) 4,20,40,160 g/Ha (mutants 1 and 2); and, 8,40,80,320 g/Ha (mutants 3 to 10); chlorsulfuron (GLEAN) 5,25,50,200 g/Ha (mutants 1 and 2); and, 1,5,10,40 g/Ha (mutants 3 to 10); imazaquin (SCEPTER) 30,150,300,1200 g/Ha; triazolopyrimidine 5,25,50,200 g/Ha; phenoxypyrimidine 10,50,100,400 g/Ha; and, imazethapyr (PURSUIT) 30,150,300,1200 g/Ha The triazolopyrimidine and phenoxypyrimidine were formulated in an adjuvant wetting agent known as JF5969 and diluted with water to make a final concentration of 10% JF5969. The remaining compounds were diluted with water only.
(§12) The spray jet and parameters were as decribed above under "SCREENING". After spraying, the seeds were covered with 0.5 litre of compost and firmed down flat (2.5cm covering) and grown under the conditions described under "SCREENING" above.
(§13) Visual assessments were made of the plants after four weeks growth. Each plant was scored on a scale of zero to 5 and the height measured from soil surface to the tallest leaf tip. The scoring scale was as follows: 0 - 0 to 10% damage (little or no herbicidal effect) 1 - 11 to 25% damage 2 - 26 to 50% damage 3 - 51 to […] 4 - 81 to 95% damage 5 - 96 to 100% damage (complete death of the plant) In carrying out these assessments, plants which were obviously of the sensitive phenotype were ignored (approximately 50% of the plants). […]

Mutant 5 plants = experiment: Cross-resistance testing (glasshouse dose response), Mutant 5; format: in vivo, Zea mays; conditions: pre-emergence spray, assessed after four weeks growth
Source text: as §7, §8, §9, §10, §11, §12, §13

Mutant 6 plants = experiment: Cross-resistance testing (glasshouse dose response), Mutant 6; format: in vivo, Zea mays; conditions: pre-emergence spray, assessed after four weeks growth
Source text: as §7, §8, §9, §10, §11, §12, §13

Mutant 7 plants = experiment: Cross-resistance testing (glasshouse dose response), Mutant 7; format: in vivo, Zea mays; conditions: pre-emergence spray, assessed after four weeks growth
Source text: as §7, §8, §9, §10, §11, §12, §13

Mutant 8 plants = experiment: Cross-resistance testing (glasshouse dose response), Mutant 8; format: in vivo, Zea mays; conditions: pre-emergence spray, assessed after four weeks growth
Source text: as §7, §8, §9, §10, §11, §12, §13

Mutant 9 plants = experiment: Cross-resistance testing (glasshouse dose response), Mutant 9; format: in vivo, Zea mays; conditions: pre-emergence spray, assessed after four weeks growth
Source text: as §7, §8, §9, §10, §11, §12, §13

Mutant 10 plants = experiment: Cross-resistance testing (glasshouse dose response), Mutant 10; format: in vivo, Zea mays; conditions: pre-emergence spray, assessed after four weeks growth
Source text: as §7, §8, §9, §10, §11, §12, §13

[3] = herbicide concentration giving 50% inhibition of ALS activity

| SMILES | pIC50 [1] | pIC50 [2] | resistance group, Enzyme Assay [2] | Fold Increase [2] | resistance group, Dose Response (Mutant 2 plants) | resistance group, Dose Response (Mutant 5 plants) | resistance group, Dose Response (Mutant 6 plants) | resistance group, Dose Response (Mutant 7 plants) | resistance group, Dose Response (Mutant 8 plants) | resistance group, Dose Response (Mutant 9 plants) | resistance group, Dose Response (Mutant 10 plants) | pIC50 [1, 3] |
| --- | --- | --- | --- | --- | --- | --- | --- | --- | --- | --- | --- | --- |
| COc1cc(Cl)nc(NC(=O)NS(=O)(=O)c2ccccc2C(=O)O)n1 [Chlorimuron, chlorimuron] | 8.43 | 8.30 | Weak | 1 | Zero | Zero | Zero | Zero | Zero | Zero | Weak |  |
| COc1nc(C)nc(NC(=O)NS(=O)(=O)c2ccccc2Cl)n1 [Chlorsulfuron, chlorsulfuron] | 7.73 | 7.19 | Weak | 4 | Zero | Weak | Zero | Weak | Zero | Weak and Zero | Weak and Zero |  |
| CC(C)C1(C)N=C(c2nc3ccccc3cc2C(=O)O)NC1=O (centres unmarked) [Imazaquin, imazaquin] |  | 3.82 | Strong | 250 | Strong | Intermediate | Weak | Zero | Strong | Strong | Weak | 6.22 |
| CCc1cnc(C2=NC(=O)C(C)(C(C)C)N2)c(C(=O)O)c1 (centres unmarked) [Imazethapyr, 5-ethyl-2-(5-iso-propyl-5-methyl-4-oxo-2-imidazolin-2-yl) nicotinic acid] |  | < 3.00 | Strong | >660 | Intermediate | Strong | Intermediate | Weak | Strong | Strong | Intermediate | 5.82 |
